From patent publication US9434693B2, “Substituted pyrazoles as N-type calcium channel blockers” (Janssen Pharmaceutica NV, priority 2012, dated 2016)
Like-named read-outs stand apart in the source and are kept apart here.

Tests used:
N-type calcium channel = N-type calcium channel (Homo sapiens (Human), UniProt Q00975); experiment: Automated electrophysiology assay (QPatch-HT whole-cell patch clamp); assay type: cell-based
Description: Cells were grown in T175 flasks to 50%-90% confluence. At the time of use, cells were enzymatically treated with Detachin (Genlantis, San Diego, Calif. USA), centrifuged, rinsed, and resuspended in 293 SFM II media (Life Technologies, Grand Island, N.Y. U.S.A.) supplemented with 25 mM HEPES (Sigma-Aldrich, St. Louis, Mo. U.S.A.) to a concentration of 2-3×10^6 cells/mL. Cells were added to the automated cell preparation station on the QPatch-HT (Sophion Biosciences, North Brunswick, N.J. U.S.A.), and following a 10- to30-min recovery period with gentle stirring, the assay protocol was initiated. During the automated cell preparation, cells were collected, centrifuged and resuspended in an extracellular (EC) solution containing 132 mM NaCl, 1.8 mM CaCl2, 5.4 mM KCl, 0.8 mM MgCl2, 10 mM glucose, and 10 mM HEPES (pH=7.4), adjusted with sucrose to approximately 315 m0sm. The QPlate was primed with an intracellular solution containing 135 mM CsCl, 10 mM EGTA, 4 MgATP, 0.3 NaGTP, and 20 mM HEPES (pH=7.2), adjusted to approximately 290 m0sm with deionized water and the EC solution. Cells were added to the prepared QPlate wells by robotic pipettes of the QPatch-HT.
For cells determined to be in stable whole-cell patch clamp, the EC solution was replaced with a barium (Ba)/triethylammonium (TEA) solution containing 140 mM TEA-Cl, 10 mM BaCl2, 0.8 mM MgCl2, 10 mM glucose and 10 mM HEPES (pH=7.4). High (40 mM) BaCl2 concentrations were made with adjustments to TEA-Cl (90 mM) to maintain the osmolarity. From a resting potential of −80 mV, a train of depolarizing pulses (15 pulses at 5 Hz, +20 mV) was delivered to the cell once every 30 sec for […], and the resulting currents were measured during a control period (no compound). This protocol was repeated for each subsequent addition of control buffer with or without compound (three periods total, each with four trains). The current generated in the 1st and 15th pulses of the last train of each period in the presence of each drug concentration was normalized to the current generated during the control period at the respective pulses (representing low- and high-frequency stimulation, respectively). Data from both the second and third drug application periods were analyzed for each cell. A final addition of Ba/TEA solution containing 60-100 μM CdCl2 was made to block all N-type current and to “zero” the currents for each cell. All buffer/compound additions were made using a “spitting” feature of the QPatch-HT, which added three repetitions of 5 μL solution at the beginning of each recording period.
To examine closed-state inactivation, cells were subjected to a channel-activating 50-msec depolarizing step pulse from −80 to +10 mV, followed by a 5-sec nonactivating step to voltages ranging from −130 to −60 mV in 10 mV increments and then a 50-ms step from −80 to +10 mV to assess the remaining current. Currents from the activating voltage pulse were normalized to the peak value of the test pulse following the −130 mV step and fit to a Boltzman equation to obtain the V1/2. Roscovitine (Sigma-Aldrich) was prepared as a 100 mM stock in dimethyl sulfoxide and diluted to the indicated working concentrations. […]. Compounds of Formula (I) were diluted first into dimethyl sulfoxide and then into 10% pluronic F-127 in water (Life Technologies), sonicated for 1 min and diluted into EC buffer. Vehicle controls were run in parallel in all experiments.
Unless otherwise indicated, statistics for comparing among electrophysiological results utilized a one-way analysis of variance with Fisher's least squares determination test for pair-wise comparison.

[1] = target: N-type calcium channel (α1B (Cav2.2), β3 and α2δ subunits) in stable HEK cell line (Homo sapiens (Human), UniProt Q00975); experiment: Functional assay (FDSS calcium mobilization): antagonism of N-type calcium channel; assay type: cell-based; details: for IC50: KCl (50 mM) depolarization, six-point concentration-response; for inhibition at 0.33 µM: HEK293; for inhibition at 0.33 µM / % Inhibition (%) at 0.33 μM: FDSS, 0.33 μM compound
Description: A stable cell line (HEK parent) co-expressing the α1B (Cav2.2), β3 and α2δ subunits of the N-type calcium channel subunits was used. These cells were routinely grown as monolayers in low glucose-containing Dulbecco's Modified Eagle Medium supplemented with 10% FBS, 2 mM L-glutamine, 100 I.U./mL penicillin, 100 μg/mL streptomycin, 400 μg/mL G418 and 200 μg/mL Zeocin (split ratio=1:5). Cells were maintained in 5% CO2 at 37° C. Compounds of Formula (I) were prepared as 10 mM stocks in DMSO from neat compound, if available. Otherwise, the 5 or 10 mM DMSO stock solutions provided in-house were used.
Calcium mobilization responses to KCl depolarization were evaluated by measuring the intensity of calcium-mediated fluorescent signal in the presence of BD Calcium Assay Dye (BD Biosciences, Franklin Lakes, N.J., U.S.A.), utilizing a Functional Drug Screening System (FDSS) by Hamamatsu Corporation (Bridgewater, N.J. U.S.A.).
Twenty-four hr prior to assay, cells were seeded in clear-base poly-D-lysine-coated 384-well plates (BD Biosciences) at a density of 5,000 cells per well in culture medium and grown overnight in 5% CO2 at 37° C. On the day of assay, growth media were removed, and cells were loaded with BD calcium assay dye (BD Biosciences) for 35 min at 37° C. under 5% CO2 and then for 25 min at room temp. Utilizing the FDSS, cells were exposed to representative compounds of Formula (I) at varying concentrations, and intracellular calcium was measured for 5 min prior to the addition of 50 mM KCl for an additional 3 min of measurement.
IC50 values for representative compounds of Formula (I) were determined from six-point concentration-response experiments and represent the concentration of said compound required to inhibit 50% of the maximal response. Maximal fluorescence intensity (FI) achieved upon addition of 50 mM KCl was exported from the FDSS software and further analyzed using GraphPad Prism 3.02 (Graph Pad Software Inc., San Diego, Calif., U.S.A.). Data were normalized to the maximum average counts from quadruplicate wells for each condition in the presence of 50 mM KCl and to the minimum average counts in the presence of buffer. Theoretical curves were generated using nonlinear regression curve-fitting analysis of either sigmoidal concentration-response or sigmoidal concentration-response (variable slope), and the IC50 values with the best-fit curve determined by GraphPad Prism were reported.

[2] = high-frequency stimulation (15th pulse of train, 5 Hz), read-out: QPatch at High Frequency % Inhibition at 0.1 μM
[3] = low-frequency stimulation (1st pulse of train), read-out: QPatch at Low Frequency % Inhibition at 0.1 μM

Chain of N-type calcium channel (Q00975 whole entry): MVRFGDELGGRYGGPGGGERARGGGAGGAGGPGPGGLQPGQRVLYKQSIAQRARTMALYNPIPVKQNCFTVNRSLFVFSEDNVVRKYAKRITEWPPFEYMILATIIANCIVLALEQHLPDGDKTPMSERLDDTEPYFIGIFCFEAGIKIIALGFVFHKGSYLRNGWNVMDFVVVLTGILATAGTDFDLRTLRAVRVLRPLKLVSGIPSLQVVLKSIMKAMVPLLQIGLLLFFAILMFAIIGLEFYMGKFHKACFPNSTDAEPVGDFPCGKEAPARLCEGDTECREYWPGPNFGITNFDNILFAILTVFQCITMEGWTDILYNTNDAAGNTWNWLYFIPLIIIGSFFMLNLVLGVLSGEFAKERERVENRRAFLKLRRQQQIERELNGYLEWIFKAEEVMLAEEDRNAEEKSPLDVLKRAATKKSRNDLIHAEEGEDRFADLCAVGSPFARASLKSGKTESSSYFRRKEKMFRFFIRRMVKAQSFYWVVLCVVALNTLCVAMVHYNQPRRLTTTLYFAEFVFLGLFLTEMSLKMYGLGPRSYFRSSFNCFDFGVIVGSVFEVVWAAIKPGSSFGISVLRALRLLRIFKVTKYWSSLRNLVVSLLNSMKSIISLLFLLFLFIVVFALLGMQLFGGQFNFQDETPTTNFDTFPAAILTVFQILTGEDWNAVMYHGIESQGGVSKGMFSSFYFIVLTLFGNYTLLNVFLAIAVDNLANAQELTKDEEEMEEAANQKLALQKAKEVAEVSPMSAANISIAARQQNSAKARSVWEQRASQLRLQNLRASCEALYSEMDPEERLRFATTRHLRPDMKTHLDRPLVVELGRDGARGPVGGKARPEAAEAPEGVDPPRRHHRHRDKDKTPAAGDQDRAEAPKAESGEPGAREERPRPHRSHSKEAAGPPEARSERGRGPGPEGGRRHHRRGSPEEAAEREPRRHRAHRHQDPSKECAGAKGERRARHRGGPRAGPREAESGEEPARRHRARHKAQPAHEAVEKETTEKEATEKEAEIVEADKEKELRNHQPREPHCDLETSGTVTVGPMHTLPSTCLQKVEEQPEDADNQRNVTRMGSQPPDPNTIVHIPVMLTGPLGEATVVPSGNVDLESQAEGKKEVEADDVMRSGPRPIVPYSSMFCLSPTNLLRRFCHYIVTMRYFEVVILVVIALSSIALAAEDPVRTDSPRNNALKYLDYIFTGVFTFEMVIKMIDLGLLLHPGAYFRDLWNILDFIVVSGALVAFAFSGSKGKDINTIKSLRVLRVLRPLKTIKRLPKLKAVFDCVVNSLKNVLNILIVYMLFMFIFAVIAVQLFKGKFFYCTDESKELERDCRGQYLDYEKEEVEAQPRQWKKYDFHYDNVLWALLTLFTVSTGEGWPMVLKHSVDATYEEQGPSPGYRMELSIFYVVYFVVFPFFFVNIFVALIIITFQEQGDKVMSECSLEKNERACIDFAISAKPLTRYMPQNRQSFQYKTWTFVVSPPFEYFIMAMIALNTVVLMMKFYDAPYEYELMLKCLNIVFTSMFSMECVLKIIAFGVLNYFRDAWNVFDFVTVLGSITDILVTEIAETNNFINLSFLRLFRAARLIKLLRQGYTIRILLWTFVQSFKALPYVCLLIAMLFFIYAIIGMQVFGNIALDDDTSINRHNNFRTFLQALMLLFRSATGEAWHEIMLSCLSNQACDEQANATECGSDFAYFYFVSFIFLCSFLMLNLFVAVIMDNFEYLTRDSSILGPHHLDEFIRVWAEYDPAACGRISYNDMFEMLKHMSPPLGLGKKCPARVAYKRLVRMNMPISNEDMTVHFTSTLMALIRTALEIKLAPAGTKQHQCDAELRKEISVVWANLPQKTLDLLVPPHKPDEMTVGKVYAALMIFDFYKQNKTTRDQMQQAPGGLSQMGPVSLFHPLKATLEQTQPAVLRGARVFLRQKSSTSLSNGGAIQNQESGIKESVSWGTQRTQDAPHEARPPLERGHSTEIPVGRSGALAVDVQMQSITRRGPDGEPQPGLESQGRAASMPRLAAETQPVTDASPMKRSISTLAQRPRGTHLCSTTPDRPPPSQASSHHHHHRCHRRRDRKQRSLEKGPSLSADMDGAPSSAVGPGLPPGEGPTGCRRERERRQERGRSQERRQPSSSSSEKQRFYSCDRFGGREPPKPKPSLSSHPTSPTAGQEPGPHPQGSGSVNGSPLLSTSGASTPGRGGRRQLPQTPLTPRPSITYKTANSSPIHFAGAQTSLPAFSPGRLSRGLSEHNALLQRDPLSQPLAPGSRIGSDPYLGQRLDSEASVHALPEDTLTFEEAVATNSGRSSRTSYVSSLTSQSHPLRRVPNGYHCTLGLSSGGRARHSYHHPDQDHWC
Chain of N-type calcium channel (P54284 whole entry partner): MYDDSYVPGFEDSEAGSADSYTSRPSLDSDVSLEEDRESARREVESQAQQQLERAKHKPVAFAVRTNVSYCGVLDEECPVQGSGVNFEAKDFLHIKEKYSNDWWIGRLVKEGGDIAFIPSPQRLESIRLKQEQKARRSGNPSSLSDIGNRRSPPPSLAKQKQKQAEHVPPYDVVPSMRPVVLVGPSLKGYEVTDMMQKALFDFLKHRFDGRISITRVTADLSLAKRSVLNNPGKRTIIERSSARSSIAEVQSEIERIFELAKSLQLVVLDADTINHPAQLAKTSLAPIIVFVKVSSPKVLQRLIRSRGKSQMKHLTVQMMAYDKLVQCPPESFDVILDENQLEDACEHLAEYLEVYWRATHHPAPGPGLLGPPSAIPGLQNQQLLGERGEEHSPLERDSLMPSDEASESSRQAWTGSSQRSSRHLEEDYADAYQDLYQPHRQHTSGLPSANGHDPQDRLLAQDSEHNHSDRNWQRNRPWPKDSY
Chain of N-type calcium channel (P54289 25-1103 partner): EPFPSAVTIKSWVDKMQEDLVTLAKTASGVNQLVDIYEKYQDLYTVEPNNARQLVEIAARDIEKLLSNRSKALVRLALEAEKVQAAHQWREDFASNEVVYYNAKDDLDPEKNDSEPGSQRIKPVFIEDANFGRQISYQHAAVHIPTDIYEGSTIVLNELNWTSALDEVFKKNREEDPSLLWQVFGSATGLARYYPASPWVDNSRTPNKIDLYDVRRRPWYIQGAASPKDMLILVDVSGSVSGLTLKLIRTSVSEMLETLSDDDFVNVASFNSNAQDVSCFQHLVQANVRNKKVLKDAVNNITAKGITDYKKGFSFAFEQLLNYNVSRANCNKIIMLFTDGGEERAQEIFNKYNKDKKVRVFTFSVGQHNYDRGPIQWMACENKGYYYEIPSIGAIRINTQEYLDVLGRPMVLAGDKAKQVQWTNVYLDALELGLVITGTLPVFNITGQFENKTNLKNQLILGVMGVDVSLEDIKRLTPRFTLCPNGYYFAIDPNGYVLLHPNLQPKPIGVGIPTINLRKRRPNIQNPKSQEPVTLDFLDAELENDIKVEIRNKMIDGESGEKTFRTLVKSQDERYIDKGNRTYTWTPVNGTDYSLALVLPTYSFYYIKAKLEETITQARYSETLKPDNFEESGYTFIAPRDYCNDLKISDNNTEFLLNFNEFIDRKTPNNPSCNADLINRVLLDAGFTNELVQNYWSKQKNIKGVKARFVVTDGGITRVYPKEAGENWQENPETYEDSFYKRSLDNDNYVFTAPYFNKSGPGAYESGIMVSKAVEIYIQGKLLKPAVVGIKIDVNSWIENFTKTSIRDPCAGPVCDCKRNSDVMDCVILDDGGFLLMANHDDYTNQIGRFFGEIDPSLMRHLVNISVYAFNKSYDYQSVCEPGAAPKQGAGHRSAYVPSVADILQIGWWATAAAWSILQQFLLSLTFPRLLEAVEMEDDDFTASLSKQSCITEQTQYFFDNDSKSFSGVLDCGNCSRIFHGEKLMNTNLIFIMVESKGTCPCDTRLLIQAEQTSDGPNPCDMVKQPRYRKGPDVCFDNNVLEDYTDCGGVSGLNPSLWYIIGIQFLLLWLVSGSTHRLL
Chain of N-type calcium channel (α1B (Cav2.2), β3 and α2δ subunits) in stable HEK cell line (Q00975 whole entry): as the sequence (Q00975 whole entry) above
Chain of N-type calcium channel (α1B (Cav2.2), β3 and α2δ subunits) in stable HEK cell line (P54284 whole entry partner): as the sequence (P54284 whole entry partner) above
Chain of N-type calcium channel (α1B (Cav2.2), β3 and α2δ subunits) in stable HEK cell line (P54289 25-1103 partner): as the sequence (P54289 25-1103 partner) above

Row | Compound | inhibition at 0.1 µM (N-type calcium channel; [2]) | inhibition at 0.1 µM (N-type calcium channel; [3]) | IC50 [1] | inhibition at 0.33 µM [1] | % Inhibition (%) at 0.33 μM [1]
1 | COc1ccccc1-n1nc(OC2CCN(S(=O)(=O)C3CC3)CC2)cc1-c1ccc(Cl)cc1 [Compound 15, 4-{[5-(4-Chlorophenyl)-1-(2-methoxyphenyl)-1H-pyrazol-3-yl]oxy}-1-(cyclopropylsulfonyl)piperidine] | 55% | 25% | 9 nM | – | –
2 | CC(C)Oc1ccccc1-n1nc(OC2CCN(S(C)(=O)=O)CC2)cc1-c1ccc(Cl)cc1 [Compound 20, 4-({5-(4-Chlorophenyl)-1-[2-(1-methylethoxy)phenyl]-1H-pyrazol-3-yl}oxy)-1-(methylsulfonyl)piperidine] | 37% | 24% | 21.5 nM | – | –
3 | COc1ccccc1-n1nc(OC2CCN(S(=O)(=O)C(C)C)CC2)cc1-c1ccc(Cl)cc1 [Compound 21, 4-{[5-(4-Chlorophenyl)-1-(2-methoxyphenyl)-1H-pyrazol-3-yl]oxy}-1-[(1-methylethyl)sulfonyl]piperidine] | 23% | 15% | 36 nM | 95% | –
4 | COc1ccccc1-n1nc(OC2CN(S(C)(=O)=O)C2)cc1-c1ccc(Cl)cc1 [Compound 26, 5-(4-Chlorophenyl)-1-(2-methoxyphenyl)-3-{[1-(methylsulfonyl)azetidin-3-yl]oxy}-1H-pyrazole] | 40% | 37% | 31 nM | 91% | –
5 | COc1ccccc1-n1nc(OC2CN(C(=O)N(C)OC)C2)cc1-c1ccc(Cl)cc1 [Compound 29, 3-{[5-(4-Chlorophenyl)-1-(2-methoxyphenyl)-1H-pyrazol-3-yl]oxy}-N-methoxy-N-methylazetidine-1-carboxamide] | 1% | -24% | 14 nM | 94% | –
6 | COc1ccccc1-n1nc(OC2CN(S(=O)(=O)c3c(C)noc3C)C2)cc1-c1ccc(Cl)cc1 [Compound 30, 4-[(3-{[5-(4-Chlorophenyl)-1-(2-methoxyphenyl)-1H-pyrazol-3-yl]oxy}azetidin-1-yl)sulfonyl]-3,5-dimethylisoxazole] | 53% | 30% | 8 nM | 93% | –
7 | COc1ccc(-c2cc(OC3CC(C)(C)OC(C)(C)C3)nn2-c2ccccc2OC)cc1 [Compound 31, 1-(2-Methoxyphenyl)-5-(4-methoxyphenyl)-3-[(2,2,6,6-tetramethyltetrahydro-2H-pyran-4-yl)oxy]-1H-pyrazole] | 44% | 28% | 9.4 nM | 97% | –
8 | COc1ccccc1-n1nc(O[C@H]2CC(C)(C)[S@+]([O-])C(C)(C)C2)cc1-c1ccc(Cl)cc1.O=C(O)C(F)(F)F [Compound 38, (1r,4r)-4-((5-(4-chlorophenyl)-1-(2-methoxyphenyl)-1H-pyrazol-3-yl)oxy)-2,2,6,6-tetramethyltetrahydro-2H-thiopyran 1-oxide trifluoroacetate] | – | – | 2.7 nM | – | 98%
9 | COc1ccccc1-n1nc(O[C@H]2CC(C)(C)[S@@+]([O-])C(C)(C)C2)cc1-c1ccc(Cl)cc1.O=C(O)C(F)(F)F [Compound 39, (1 s,4s)-4-((5-(4-chlorophenyl)-1-(2-methoxyphenyl)-1H-pyrazol-3-yl)oxy)-2,2,6,6-tetramethyltetrahydro-2H-thiopyran 1-oxide trifluoroacetate] | – | – | 1.5 nM | – | 99%
10 | COc1ccccc1-n1nc(OCC2C(C)(C)OC2(C)C)cc1-c1ccc(Cl)cc1 [Compound 40] | – | – | 3.1 nM | 95% | –
11 | COc1ccccc1-n1nc(OC2CC(C)(C)C(=O)C(C)(C)C2)cc1-c1ccc(Cl)cc1 [Compound 41, 4-{[5-(4-Chlorophenyl)-1-(2-methoxyphenyl)-1H-pyrazol-3-yl]oxy}-2,2,6,6-tetramethylcyclohexanone] | – | – | – | 92% | –
12 | COc1ccccc1-n1nc(OC2CC(C)(C)C(O)C(C)(C)C2)cc1-c1ccc(Cl)cc1 (stereo not shown) [Compound 42, 4-{[5-(4-Chlorophenyl)-1-(2-methoxyphenyl)-1H-pyrazol-3-yl]oxy}-2,2,6,6-tetramethylcyclohexanol] | – | – | 39 nM | 78% | –
13 | COc1ccccc1-n1nc(OC2CC(C)(C)OC(C)(C)C2)cc1-c1ccc(C#N)cc1 [Compound 43, 4-{1-(2-Methoxyphenyl)-3-[(2,2,6,6-tetramethyltetrahydro-2H-pyran-4-yl)oxy]-1H-pyrazol-5-yl}benzonitrile] | – | – | 7.2 nM | 90% | –
14 | COc1ccccc1-n1nc(OC2CC(C)(C)SC(C)(C)C2)cc1-c1ccc(C#N)cc1 [Compound 44, 4-{1-(2-Methoxyphenyl)-3-[(2,2,6,6-tetramethyltetrahydro-2H-thiopyran-4-yl)oxy]-1H-pyrazol-5-yl}benzonitrile] | – | – | 12 nM | 87% | –
15 | COc1ccccc1-n1nc(OC2CC(C)(C)S(=O)(=O)C(C)(C)C2)cc1-c1ccc(C#N)cc1 [Compound 45, 4-{1-(2-Methoxyphenyl)-3-[(2,2,6,6-tetramethyl-1,1-dioxidotetrahydro-2H-thiopyran-4-yl)oxy]-1H-pyrazol-5-yl}benzonitrile] | – | – | 2.4 nM | 99% | –
16 | COc1ccccc1-n1nc(O[C@H]2CC(C)(C)[S@+]([O-])C(C)(C)C2)cc1-c1ccc(C#N)cc1 [Compound 46] | – | – | 14 nM | – | 90%
